Measured values: patent US4346087A, “Antibacterial surface active agent containing azaalkenelactam” (priority 1979, dated 1982)
In brackets after ≈: the same amount, converted by molar mass. Where two headings read alike, the source gives them in different places.

Key:
Type in all cases: cell-based
[1] = system: Desulfovibrio desulfuricans IFO 13699; assay: MIC against Desulfovibrio desulfuricans
From the text: (§1) Below are described the antibacterial activities of the compounds in the compositions according to this invention.
(§2) The testing method complied with the standard method of Japan Sociaty of Chemotherapy.

Escherichia coli NIHJ = assay: MIC against Escherichia coli NIHJ
From the text: as §1, §2

[2] = system: Staphylococcus aureus FDA 209P; assay: MIC against Staphylococcus aureus FDA 209P
From the text: as §1, §2

[3] = Desulfovibrio desulfuricans, IFO13699, 24 h
[4] = Staphylococcus aureus, FDA209P, 24 h
[5] = Escherichia coli, Table 1, azaalkenelactams, heart infusion agar, 37° C., 24 hours, read-out: MIC
[6] = Staphylococcus aureus, FDA209P, Table 1, azaalkenelactams, heart infusion agar, 37° C., 24 hours, read-out: MIC
[7] = Desulfovibrio desulfuricans, IFO13699, Table 1, azaalkenelactams, heart infusion agar, 37° C., 24 hours, read-out: MIC
[8] = Escherichia coli, Table 2, derivatives having a carboxylate radical, heart infusion agar, 37° C., 24 hours, read-out: MIC
[9] = Table 1, azaalkenelactams, heart infusion agar, 37° C., 24 hours

Compound	MIC [1, 3] [µg/mL]	MIC (Escherichia coli NIHJ; Escherichia coli, 24 h) [µg/mL]	MIC [2, 4] [µg/mL]	also measured
CCCCCCCC(=O)NCCN1CCN=C(C)CC1=O [Example 23, 4-octamidoethyl-7-methyl-3,6-dihydro-2H-1,4-diazepin-5-one]	50 (≈ 169 µM)	25 (≈ 84.6 µM)	25 (≈ 84.6 µM)	–
CCCCCCCCCCCC(=O)NCCN1CC[N+](CC(=O)[O-])=CC(C)C1=O (stereo not drawn) [4-lauramidoethyl-6-methyl-1-azonia-4-azacyclohept-7-en-5-one-1-acetate]	6.25 (≈ 15.3 µM)	50 (≈ 122 µM)	12.5 (≈ 30.5 µM)	–
CCCCCCCCCCCCN1CCN=C(C)CC1=O [Example 1, 4-dodecyl-7-methyl-3,6-dihydro-2H-1,4-diazepin-5-one]	6.25 (≈ 21.2 µM)	–	–	MIC (Escherichia coli NIHJ; [5]): 1600 µg/mL (≈ 5430 µM); MIC [2, 6]: 50 µg/mL (≈ 170 µM)
1-octadecylaminopropyl-4-methyl-1-aza-5-azoniacyclooct-4-en-2-one-5-propionate	–	–	–	MIC [1]: 6.25 µg/mL; MIC (Escherichia coli NIHJ): 100 µg/mL; MIC [2]: 6.25 µg/mL
CCCCCCCCCCCCCCCCCCCCC(O)CNCCNCCN1CCCN=C(C)CC1=O (stereo not drawn) [Example 30, 1-(2-hydroxy)docosylaminoethylaminoethyl-4-methyl-3,6,7,8-tetrahydro-1,5-diazocin-2-one]	–	25 (≈ 45.4 µM)	12.5 (≈ 22.7 µM)	MIC [1, 7]: 3.12 µg/mL (≈ 5.66 µM)
CCCCCCCCCCC(O)CN1CC[N+](CC(=O)[O-])=C(C)CC1=O (stereo not drawn) [4-(2-hydroxy)dodecyl-7-methyl-1-azonia-4-azacyclohept-7-en-5-one-1-acetate]	6.25 (≈ 17 µM)	200 (≈ 543 µM)	100 (≈ 271 µM)	–
CCCCCCCCCCCCN1CCCN=C(C)CC1=O [Example 3, 1-dodecyl-4-methyl-3,6,7,8-tetrahydro-1,5-diazocin-2-one]	6.25 (≈ 20.3 µM)	–	50 (≈ 162 µM)	MIC (Escherichia coli NIHJ; [5]): 1600 µg/mL (≈ 5190 µM)
CCCCCCCCCCCC(=O)OCCN1CCN=C(C)CC1=O [Example 12, 4-lauroyloxyethyl-7-methyl-3,6-dihydro-2H-1,4-diazepin-5-one]	12.5 (≈ 35.5 µM)	–	100 (≈ 284 µM)	MIC (Escherichia coli NIHJ; [5]): 1600 µg/mL (≈ 4540 µM)
CCCCCCCCCCCCNCCCN1CCCN=C(C)CC1=O [Example 36, 1-dodecylaminopropyl-4-methyl-3,6,7,8-tetrahydro-1,5-diazocin-2-one]	25 (≈ 68.4 µM)	50 (≈ 137 µM)	12.5 (≈ 34.2 µM)	–
CCCCCCCCCCCCNCCNCCNCCCN1CCCN=C(C)CC1=O [Example 38, 1-dodecylaminoethylaminoethylaminopropyl-4-methyl-3,6,7,8-tetrahydro-1,5-diazocin-2-one]	25 (≈ 55.3 µM)	50 (≈ 111 µM)	12.5 (≈ 27.7 µM)	–
CCCCCCCCCCCC(=O)OCCN1CC[N+](CC(=O)[O-])=C(C)CC1=O [4-lauroyloxyethyl-7-methyl-1-azonia-4-azacyclohept-7-en-5-one-1-acetate]	25 (≈ 60.9 µM)	–	400 (≈ 974 µM)	MIC (Escherichia coli NIHJ; [8]): 3200 µg/mL (≈ 7790 µM)
CCCCCCCCCCCC(=O)OCCN1CCC[N+](CC(=O)[O-])=C(C)CC1=O [1-lauroyloxyethyl-4-methyl-1-aza-5-azoniacyclooct-4-en-2-one-5-acetate]	25 (≈ 58.9 µM)	–	400 (≈ 942 µM)	MIC (Escherichia coli NIHJ; [8]): 3200 µg/mL (≈ 7540 µM)
4-behenoyloxypropyl-6-methyl-4aza-1-azoniacyclooct-8-en-5-one-1-acetate	–	–	–	MIC [1]: 25 µg/mL; MIC (Escherichia coli NIHJ; Table 2, derivatives having a carboxylate radical, heart infusion agar, 37° C., 24 hours): 800 µg/mL; MIC [2]: 200 µg/mL
CCCCCCCCCCCC(=O)OCCN1CCN=CC(C)C1=O (stereo not drawn) [Example 47, 4-lauroyloxyethyl-6-methyl-3,6-dihydro-2H-1,4-diazepin-5-one]	–	–	–	MIC [1, 7]: 50 µg/mL (≈ 142 µM); MIC (Escherichia coli NIHJ; [5]): 200 µg/mL (≈ 567 µM); MIC [2, 6]: 50 µg/mL (≈ 142 µM)
CCCCCCCCCCCCN1CCC[N+](CC(=O)[O-])=C(C)CC1=O [1-dodecyl-4-methyl-1-aza-5-azoniacyclooct-4-en-2-one-5-acetate]	12.5 (≈ 34.1 µM)	–	100 (≈ 273 µM)	MIC (Escherichia coli NIHJ; [8]): 3200 µg/mL (≈ 8730 µM)
CCCCCCCCCc1ccc(OCCOCCN2CCCN=CC(C)(C)C2=O)cc1 [Example 62, 1-nonylphenylpoly(2 moles)oxyethyleneoxyethyl-3,3-dimethyl-6,7,8-trihydro-1,5-diazocin-5-one]	50 (≈ 112 µM)	200 (≈ 450 µM)	100 (≈ 225 µM)	–
CCCCCCCCCc1ccc(OCCOCCN2CCCN=C(C)CC2=O)cc1 [Example 7, 1-nonylphenylpoly(2 moles)oxyethyleneoxyethyl-4-methyl-3,6,7,8-tetrahydro-1,5-diazocin-2-one]	12.5 (≈ 29 µM)	200 (≈ 464 µM)	12.5 (≈ 29 µM)	–
CCCCCCCCCCCCCCC(O)CNCCN1CC[N+](CC(=O)[O-])=CCCC1=O (stereo not drawn) [4-(2-hydroxyhexadecyl)aminoethyl-4-aza-1-azoniacyclooct-8-en-5-one-1-acetate]	6.25 (≈ 13.4 µM)	100 (≈ 214 µM)	12.5 (≈ 26.7 µM)	–
CCCCCCCCCCCC(=O)OCCN1CCCN=C(C)CC1=O [Example 14, 1-lauroyloxyethyl-4-methyl-3,6,7,8-tetrahydro-1,5-diazocin-2-one]	12.5 (≈ 34.1 µM)	–	–	MIC (Escherichia coli NIHJ; [5]): 1600 µg/mL (≈ 4370 µM); MIC [2, 6]: 100 µg/mL (≈ 273 µM)
CCCCCCCCCCCCOCC(O)CN1CCCN=C(C)CC1=O (stereo not drawn) [Example 33, 1-docoxy(2-hydroxy)propyl-4-methyl-3,6,7,8-tetrahydro-1,5-diazocin-2-one]	25 (≈ 65.3 µM)	400 (≈ 1050 µM)	25 (≈ 65.3 µM)	–
CCCCCCCCCCC(O)CN1CCCN=CC(C)C1=O (stereo not drawn) [Example 45, 1-(2-hydroxy)dodecyl-3-methyl-3,6,7,8-tetrahydro-1,5-diazocin-2-one]	–	–	–	MIC [1, 9]: 50 µg/mL (≈ 154 µM); MIC (Escherichia coli NIHJ; [9]): 800 µg/mL (≈ 2470 µM); MIC [2, 9]: 100 µg/mL (≈ 308 µM)
CCCCCCCCCCCCNCCNCCN1CC[N+](CC(=O)[O-])=C(C)CC1=O [4-dodecylaminoethylaminoethyl-1-azonia-4-azacyclohept-7-en-5-one-1-acetate]	6.25 (≈ 14.2 µM)	100 (≈ 228 µM)	12.5 (≈ 28.5 µM)	–
CCCCCCCCCCC(O)CN1CC[N+](CC(=O)[O-])=CC(C)C1=O (stereo not drawn) [4-(2-hydroxy)dodecyl-6-methyl-1-azonia-4-azacyclohept-7-en-5-one-1-acetate]	25 (≈ 67.8 µM)	–	25 (≈ 67.8 µM)	MIC (Escherichia coli NIHJ; [8]): 800 µg/mL (≈ 2170 µM)
CCCCCCCCCCCCCCNCCN1CC[N+](CC(=O)[O-])=CC(C)C1=O (stereo not drawn) [4-tetradecylaminoethyl-6-methyl-1-azonia-4-azacyclohept-7-en-5-one-1-acetate]	6.25 (≈ 14.8 µM)	100 (≈ 236 µM)	6.25 (≈ 14.8 µM)	–
CCCCCCCCCCCCCCC(O)CNCCN1CC[N+](CC(=O)[O-])=CC(C)(C)C1=O (stereo not drawn) [4-(2-hydroxyhexadecyl)aminoethyl-6,6-dimethyl-1-azonia-4-azacyclohept-7-en-5-one-1-acetate]	6.25 (≈ 13 µM)	200 (≈ 415 µM)	12.5 (≈ 25.9 µM)	–
4-behenoyloxypropyl-6-methyl-2,3,6,7-tetrahydro-1,4-diazocin-5-one [Example 68]	–	–	–	MIC [1]: 25 µg/mL; MIC (Escherichia coli NIHJ): 200 µg/mL; MIC [2]: 100 µg/mL
1-coconutalkyl-4-methyl-3,6,7,8-tetrahydro-1,5-diazocin-2-one [Example 15]	–	–	–	MIC [1]: 6.25 µg/mL; MIC (Escherichia coli NIHJ; [9]): 1600 µg/mL; MIC [2]: 50 µg/mL
CCCCCCCCCCCCCCCCCCCCCC(=O)OCCCN1CCCN=CC(C)C1=O (stereo not drawn) [Example 51, 1-behenoyloxypropyl-3-methyl-3,6,7,8-tetrahydro-1,5-diazocin-2-one]	–	–	–	MIC [1]: 12.5 µg/mL (≈ 24 µM); MIC (Escherichia coli NIHJ; [9]): 100 µg/mL (≈ 192 µM); MIC [2, 9]: 25 µg/mL (≈ 48 µM)
CCCCCCCCCc1ccc(OCC(O)CNCCNCCNCCN2CCN=C(C)CC2=O)cc1 (stereo not drawn) [Example 32, 4-nonylphenoxy(2-hydroxy)propylaminoethylaminoethylaminoethyl-7-methyl-3,6-dihydro-2H-1,4-diazepin-5-one]	25 (≈ 47 µM)	–	200 (≈ 376 µM)	MIC (Escherichia coli NIHJ; [5]): 800 µg/mL (≈ 1500 µM)
